Experimental data: patent US20220017572A1, “GEMINOID LIPOPEPTIDE COMPOUNDS AND THEIR USES” (Erasmus University Medical Center Rotterdam, priority 2016, published 2022)
Non-standard residues stand in square brackets, D forms with d. Residues, ends and D or L forms follow the SMILES beside them. C12 = C12 alkyl chain at peptide end (geminoid); C16 = C16 alkyl chain at peptide end (geminoid); C20 = C20 alkyl chain at peptide end (geminoid); C3 = C3 alkyl chain at peptide end

Biological target: T1, dengue 2 protease (Dengue virus type 2, UniProt P14340)
T1 construct: The active site of the dengue protease is in the N-terminal part of NS3
T1 sequence (P14340 1476-1653): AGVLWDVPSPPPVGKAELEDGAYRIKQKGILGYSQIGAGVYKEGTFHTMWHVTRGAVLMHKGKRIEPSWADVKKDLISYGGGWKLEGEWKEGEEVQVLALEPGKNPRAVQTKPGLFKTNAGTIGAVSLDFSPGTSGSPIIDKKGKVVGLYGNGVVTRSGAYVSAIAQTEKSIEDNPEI
Assay: Dengue 2 protease inhibition, hydrolysis of Z-RR-MCA
Format: biochemical, dengue 2 virus
Set-up: Activity with inhibitors: unit not given here
Settings: not given
Method: The active site of the dengue protease is in the N-terminal part of NS3 which is also a serine protease with catalytic triad Asp79-His51-Ser135, but requires […] (CF40) for activity; the inhibition reported here was studied on a […] (CF40-GGGGSGGGG-NS3; (SEQ ID NO:54)) which has also been structurally characterized [Erbel et al., 2006; Luo et al. 2008].
Substrate was added in a concentration 10 times the Km, and the inhibitor compounds of type C (C16-KGnK-C16, C16-KAnK-C16, and C16-RAnR-C16) were added in increasing concentrations (1.0, 5.0, 10.0, 20.0, 40.0 μL) from a stock solution of 2 mg in 1 mL DMSO. The residual activity was measured in a Hitachi F2500 spectrofluorimeter, and plots were fitted using the Grafit® software (Erithracus Software, Horley, Surrey, UK). All the assays were calculated by the Morrison equation for competitive inhibition (eq. 1, [Morrison, 1969]). The amount of substrate used for the tight binding titration experiments follow all the requirements, where [S]<<Km for all enzymes, so the Kiapp=Ki.
Range of Proteases Inhibited by Geminoids, Determination of Ki with Z-RR-MCA (Dengue 2 Protease) and Ac-RVRR-MCA (Furin) (SEQ ID NO:60).

| Molecule | Ki [µM] |
| --- | --- |
| CCCCCCCCCCCCNC(=O)[C@H](CCCCN)NC(=O)[C@H](C)NC(=O)[C@H](C)NC(=O)[C@H](C)NC(=O)[C@H](CCCCN)NC(=O)CCCCCCCCCCC [C12KA3KC12, n-C11H23C(O)-Lys-(Ala)3-Lys-(n-C12H25).2TFA] (HELM PEPTIDE1{[CCCCCCCCCCCC(=O)[*:2]].K.A.A.A.K.[CCCCCCCCCCCCN[*:1]]}$$$$V2.0) | 5.4 |

Same assay, conditions: 5 μM of inhibitor; 10 μM Z-RR-MCA, pH 9.0, 37° C.; initial activity in UAF/min

| Molecule | Activity with inhibitors |
| --- | --- |
| CCCCCCCCCCCCNC(=O)[C@H](CCCCN)NC(=O)[C@H](C)NC(=O)[C@H](C)NC(=O)[C@H](C)NC(=O)[C@H](CCCCN)NC(=O)CCCCCCCCCCC [C12KA3KC12, n-C11H23C(O)-Lys-(Ala)3-Lys-(n-C12H25).2TFA] (HELM PEPTIDE1{[CCCCCCCCCCCC(=O)[*:2]].K.A.A.A.K.[CCCCCCCCCCCCN[*:1]]}$$$$V2.0) | 30 |

Biological target: T1, dengue 2 protease
Assay: Dengue 2 protease inhibition in presence of Triton X-100 (detergent test, Nature Protocol)
Format: biochemical, dengue 2 virus
Settings: 5 μM of inhibitor, 0.05% Triton X-100
From the text: A further investigation of the interactions of the geminoid inhibitors with biological membranes and with membrane-bound proteases is needed. […] The preparation and tests of peptides symmetrically, asymmetrically and singly alkylated with saturated, short (C6), and unsaturated (C18:1) alkyl tails are in progress.

| Molecule | % recovery in presence of Triton [%] |
| --- | --- |
| CCCCCCCCCCCCNC(=O)[C@H](CCCCN)NC(=O)[C@H](C)NC(=O)[C@H](C)NC(=O)[C@H](C)NC(=O)[C@H](CCCCN)NC(=O)CCCCCCCCCCC [C12KA3KC12, n-C11H23C(O)-Lys-(Ala)3-Lys-(n-C12H25).2TFA] (HELM PEPTIDE1{[CCCCCCCCCCCC(=O)[*:2]].K.A.A.A.K.[CCCCCCCCCCCCN[*:1]]}$$$$V2.0) | 45 |

Same assay, conditions: 5 μM of inhibitor, 0.05% Triton X-100; initial activity in UAF/min

| Molecule | Activity with 0.05% Triton |
| --- | --- |
| CCCCCCCCCCCCNC(=O)[C@H](CCCCN)NC(=O)[C@H](C)NC(=O)[C@H](C)NC(=O)[C@H](C)NC(=O)[C@H](CCCCN)NC(=O)CCCCCCCCCCC [C12KA3KC12, n-C11H23C(O)-Lys-(Ala)3-Lys-(n-C12H25).2TFA] (HELM PEPTIDE1{[CCCCCCCCCCCC(=O)[*:2]].K.A.A.A.K.[CCCCCCCCCCCCN[*:1]]}$$$$V2.0) | 85 |

Test system: DENV2 protease replicon
Assay: DENV2 protease replicon assay
Format: cell-based
Settings: lowest concentration with observed activity in replicon assay

| Molecule | Replicon activity [μM] (1) [µM] |
| --- | --- |
| C2-AKAK-C3: alkylated peptide in shorthand Cp-Zn-Cq, peptide SEQ ID NO: 74 (Et-AKAK-C3) | 10.0 |
| C2-LKAK-C3: alkylated peptide in shorthand Cp-Zn-Cq, peptide SEQ ID NO: 75 (Et-LKAK-C3) | 10.0 |
| C3-AKKK-C3: alkylated peptide in shorthand Cp-Zn-Cq, peptide SEQ ID NO: 71 ({C3 alkyl}-AKKK-{C3 alkyl}) | 10.0 |
| C3-ARRK-C3: alkylated peptide in shorthand Cp-Zn-Cq, peptide SEQ ID NO: 76 ({C3 alkyl}-ARRK-{C3 alkyl}) | 3.0 |
| C3-FKKK-C3: alkylated peptide in shorthand Cp-Zn-Cq, peptide SEQ ID NO: 73 ({C3 alkyl}-FKKK-{C3 alkyl}) | 10.0 |
| C3-LKKK-C3: alkylated peptide in shorthand Cp-Zn-Cq, peptide SEQ ID NO: 72 | 10.0 |
| C8-AKAK-C8: alkylated peptide in shorthand Cp-Zn-Cq, peptide SEQ ID NO: 74 ({C8 alkyl}-AKAK-{C8 alkyl}) | 10.0 |
| C8-AKKK-C8: alkylated peptide in shorthand Cp-Zn-Cq, peptide SEQ ID NO: 71 ({C8 alkyl}-AKKK-{C8 alkyl}) | 10.0 |
| C8-ARRK-C8: alkylated peptide in shorthand Cp-Zn-Cq, peptide SEQ ID NO: 76 ({C8 alkyl}-ARRK-{C8 alkyl}) | 10.0 |
| C8-FKKK-C8: alkylated peptide in shorthand Cp-Zn-Cq, peptide SEQ ID NO: 73 ({C8 alkyl}-FKKK-{C8 alkyl}) | 10.0 |
| C8-LKAK-C8: alkylated peptide in shorthand Cp-Zn-Cq, peptide SEQ ID NO: 75 ({C8 alkyl}-LKAK-{C8 alkyl}) | 10.0 |
| C8-LKKK-C8: alkylated peptide in shorthand Cp-Zn-Cq, peptide SEQ ID NO: 72 | 10.0 |
| C12-AKAK-C12: geminoid in shorthand Cp-Zn-Cq, peptide SEQ ID NO: 74 | 10.0 |
| C12-ARRK-C12: geminoid in shorthand Cp-Zn-Cq, peptide SEQ ID NO: 76 | 0.3 |
| C12-FKKK-C12: geminoid in shorthand Cp-Zn-Cq, peptide SEQ ID NO: 73 | 10.0 |
| C12-LKAK-C12: geminoid in shorthand Cp-Zn-Cq, peptide SEQ ID NO: 75 | 10.0 |
| C12-RARK-C12: geminoid in shorthand Cp-Zn-Cq, peptide SEQ ID NO: 77 | 1.0 |
| C16-AAKK-C16: geminoid in shorthand Cp-Zn-Cq, peptide SEQ ID NO: 62 | 5.0 |
| C16-AFKK-C16: geminoid in shorthand Cp-Zn-Cq, peptide SEQ ID NO: 68 | 5.0 |
| C16-AKAKS-C16: geminoid in shorthand Cp-Zn-Cq, peptide SEQ ID NO: 89 | 1.0 |
| C16-AKKK-C16: geminoid in shorthand Cp-Zn-Cq, peptide SEQ ID NO: 71 | 1.0 |
| C16-ALKK-C16: geminoid in shorthand Cp-Zn-Cq, peptide SEQ ID NO: 65 | 10.0 |
| C16-ARRK-C16: geminoid in shorthand Cp-Zn-Cq, peptide SEQ ID NO: 76 | 0.3 |
| C16-D-AKAK-C16: geminoid in shorthand Cp-Zn-Cq, D-peptide, SEQ ID NO: 74 (C16-[dA][dK][dA][dK]-C16) | 2.9 |

| Molecule | Replicon activity [μM] (1) [µM] |
| --- | --- |
| C16-D-AKAKG-C16: geminoid in shorthand Cp-Zn-Cq, D-peptide, SEQ ID NO: 87 (C16-[dA][dK][dA][dK]G-C16) | 3.0 |
| C16-D-AKAKS-C16: geminoid in shorthand Cp-Zn-Cq, D-peptide, SEQ ID NO: 89 (C16-[dA][dK][dA][dK][dS]-C16) | 5.0 |
| C16-D-LKAK-C16: geminoid in shorthand Cp-Zn-Cq, D-peptide, SEQ ID NO: 75 (C16-[dL][dK][dA][dK]-C16) | 9.9 |
| C16-D-LKAK-L-S-C16: geminoid in shorthand Cp-Zn-Cq, D-LKAK with L-S, SEQ ID NO: 90 (C16-[dL][dK][dA][dK]S-C16) | 3.0 |
| C16-D-LKAKG-C16: geminoid in shorthand Cp-Zn-Cq, D-peptide, SEQ ID NO: 88 (C16-[dL][dK][dA][dK]G-C16) | 3.0 |
| C16-FAKK-C16: geminoid in shorthand Cp-Zn-Cq, peptide SEQ ID NO: 64 | 3.0 |
| C16-FFKK-C16: geminoid in shorthand Cp-Zn-Cq, peptide SEQ ID NO: 70 | 5.0 |
| C16-FFQK-C16: geminoid in shorthand Cp-Zn-Cq, peptide SEQ ID NO: 82 | 3.0 |
| C16-FLKK-C16: geminoid in shorthand Cp-Zn-Cq, peptide SEQ ID NO: 67 | 3.0 |
| C16-GLKR-C16: geminoid in shorthand Cp-Zn-Cq, peptide SEQ ID NO: 84 | 3.0 |
| C16-LAKK-C16: geminoid in shorthand Cp-Zn-Cq, peptide SEQ ID NO: 63 | 5.0 |
| C16-LFKK-C16: geminoid in shorthand Cp-Zn-Cq, peptide SEQ ID NO: 69 | 10.0 |
| C16-LKAK-C16: geminoid in shorthand Cp-Zn-Cq, peptide SEQ ID NO: 75 | 3.0 |
| C16-LKKK-C16: geminoid in shorthand Cp-Zn-Cq, peptide SEQ ID NO: 72 | 1.0 |
| C16-LKRR-C16: geminoid in shorthand Cp-Zn-Cq, peptide SEQ ID NO: 83 | 3.0 |
| C16-LLKK-C16: geminoid in shorthand Cp-Zn-Cq, peptide SEQ ID NO: 66 | 3.0 |
| C16-LLQK-C16: geminoid in shorthand Cp-Zn-Cq, peptide SEQ ID NO: 81 | 0.3 |
| C16-NKKR-C16: geminoid in shorthand Cp-Zn-Cq, peptide SEQ ID NO: 86 | 3.0 |
| C16-QRKR-C16: geminoid in shorthand Cp-Zn-Cq, peptide SEQ ID NO: 85 | 3.0 |
| C16-RARK-C16: geminoid in shorthand Cp-Zn-Cq, peptide SEQ ID NO: 77 | 3.0 |
| C20-AKKK-C20: geminoid in shorthand Cp-Zn-Cq, peptide SEQ ID NO: 71 | 3.0 |
| C20-FKKK-C20: geminoid in shorthand Cp-Zn-Cq, peptide SEQ ID NO: 73 ({C20 alkyl}-FKKK-{C20 alkyl}) | 0.9 |
| C20-LKKK-C20: geminoid in shorthand Cp-Zn-Cq, peptide SEQ ID NO: 72 | 1.0 |
